Some test systems named below: SNB-19 CNS; MOLT-4 leukemia; RXF 393 renal; COLO 205 colon; LOX IMVI melanoma; HCC-2998 colon; SK-MEL-5 melanoma; NCI/ADR-RES ovarian; DU-145 prostate; BT-549 breast.
What all share (assay): NCI anticancer screen, dose series, 48 h

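Each compound was tested at five concentrations against cells in 96-well plates for 48 hours. Here, GI50 denotes the concentration required for 50% inhibition of growth. TGI is the concentration that stops growth completely.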

On to `Oc1ccc(I)c2cccnc12`, for which the TGI in the assay on SNB-19 CNS is over 100 µM; in the assay on MOLT-4 leukemia, over 100 µM; in the assay with RXF 393 renal it was 33.1 µM; in the assay with COLO 205 colon, 79 µM; in the assay with LOX IMVI melanoma it was 46.3 µM.
For `O=c1[nH]c(-c2ccccc2)nc2cc([N+](=O)[O-])c(/C(Cl)=C/c3ccccc3)cc12`, the TGI in the assay with SNB-19 CNS was over 100 µM; in the assay with HCC-2998 colon it was over 100 µM; in the assay on MOLT-4 leukemia, over 100 µM; in the assay on RXF 393 renal, 72.7 µM; in the assay with SK-MEL-5 melanoma, 74 µM; in the assay on COLO 205 colon, 79.9 µM.
Regarding `Cc1c(C(=O)/C=C/c2ccc([N+](=O)[O-])cc2)[n+](=O)c2ccccc2n1[O-]`, the TGI with SNB-19 CNS is over 100 µM; in the assay with HCC-2998 colon it was over 100 µM; in the assay with MOLT-4 leukemia, 82.2 µM; with RXF 393 renal it was over 100 µM; in the assay with COLO 205 colon, over 100 µM; in the assay with LOX IMVI melanoma it was over 100 µM.
As to `NC(N)=NCCCC(Nc1c2ccccc2nc2ccccc12)C(=O)O` (stereo unspecified), the TGI in the assay on HCC-2998 colon, in the assay on MOLT-4 leukemia, in the assay on RXF 393 renal, with COLO 205 colon and in the assay with LOX IMVI melanoma was over 100 µM in each case.
In the case of `COC1(OC)CCC2(C)OC(c3ccccc3)C1O2` (stereo unspecified), the TGI with SNB-19 CNS, in the assay with HCC-2998 colon, in the assay with MOLT-4 leukemia, with RXF 393 renal, in the assay on COLO 205 colon and with LOX IMVI melanoma was over 100 µM throughout.
Turning to `CS(=O)(=O)ON1C(=O)c2ccc(N)cc2C1=O`, the TGI is over 100 µM in the assay on SNB-19 CNS; over 100 µM in the assay on HCC-2998 colon; over 69.3 µM in the assay on MOLT-4 leukemia; over 71 µM in the assay with RXF 393 renal; over 100 µM in the assay with SK-MEL-5 melanoma; over 100 µM in the assay on COLO 205 colon. This molecule came in with a TGI in the assay on LOX IMVI melanoma of over 100 µM.
With `CC(=O)[CH-]C(=O)c1ccccc1.CC(=O)[CH-]C(=O)c1ccccc1.CC(=O)[CH-]C(=O)c1ccccc1.[Cl-].[Hf+4]`, the GI50 in the assay on MOLT-4 leukemia was 15.4 µM; with RXF 393 renal it was 47.4 µM; with SK-MEL-5 melanoma it was 32.5 µM; with COLO 205 colon, 34 µM; with LOX IMVI melanoma it was 14.4 µM. The TGI is over 100 µM in the assay on MOLT-4 leukemia; over 100 µM with RXF 393 renal; over 100 µM in the assay with SK-MEL-5 melanoma; over 100 µM with COLO 205 colon; 92.2 µM with LOX IMVI melanoma.
For `C/C(=C\CNc1ncnc2c1ncn2C1CCCCO1)COP(=O)(O)O` (stereo unspecified), the TGI with SNB-19 CNS, in the assay on HCC-2998 colon, in the assay with MOLT-4 leukemia, in the assay on RXF 393 renal, with SK-MEL-5 melanoma and with COLO 205 colon was over 100 µM throughout. This molecule also gave a TGI in the assay with LOX IMVI melanoma of over 100 µM.
Take `COC12OCCN(C)C1=CC(=O)C1N=NCC12` (stereo unspecified): the TGI in the assay with HCC-2998 colon, in the assay on MOLT-4 leukemia, in the assay with RXF 393 renal, in the assay on SK-MEL-5 melanoma, in the assay on COLO 205 colon and in the assay on LOX IMVI melanoma was over 100 µM each time.
Consider `COC(=O)C1=C(C)N(NC(N)=O)C2(N)N(NC(N)=O)C(C)=C(C(=O)OC)C12C#N` (stereo unspecified), for which the TGI in the assay with SNB-19 CNS, with HCC-2998 colon, in the assay with MOLT-4 leukemia, in the assay with COLO 205 colon and in the assay with LOX IMVI melanoma was over 100 µM each time.
For the molecule `CC(C)(C)c1cc(Cc2ccc(S(C)(=O)=O)cc2)c(O)c(C(C)(C)C)c1`, the TGI with SNB-19 CNS stood at 29 µM; in the assay with HCC-2998 colon, 29.8 µM; with MOLT-4 leukemia it was 27.4 µM; in the assay with RXF 393 renal, 26.1 µM; in the assay on SK-MEL-5 melanoma, 30 µM; in the assay on LOX IMVI melanoma it was 27.7 µM.
On to `c1ccc(C2=Nc3ccccc3N3CNN=C23)cc1`, for which the GI50 with SNB-19 CNS was over 100 µM; with HCC-2998 colon, over 100 µM; with NCI/ADR-RES ovarian it was over 100 µM; in the assay on MOLT-4 leukemia, 24.2 µM; with SK-MEL-5 melanoma it was 63.6 µM; with COLO 205 colon, over 100 µM. The GI50 is over 100 µM with LOX IMVI melanoma and 81.9 µM in the assay on DU-145 prostate. In addition, the TGI in the assay with SNB-19 CNS, with HCC-2998 colon, with NCI/ADR-RES ovarian, in the assay on MOLT-4 leukemia, with SK-MEL-5 melanoma and in the assay on COLO 205 colon was over 100 µM in each case. The TGI with LOX IMVI melanoma and with DU-145 prostate was over 100 µM in each case.
In the case of `N#CC(Cl)CS(=O)(=O)c1ccccc1` (stereo unspecified), the TGI in the assay with SNB-19 CNS is 35.1 µM; in the assay with HCC-2998 colon, 29.4 µM; in the assay on MOLT-4 leukemia, 3.62 µM; with RXF 393 renal, 6.31 µM; in the assay on SK-MEL-5 melanoma, 29.6 µM; in the assay with BT-549 breast it was 30.9 µM. Also, the TGI with COLO 205 colon came to 3.8 µM; in the assay with LOX IMVI melanoma, 22 µM; with DU-145 prostate it was 32.4 µM. Also, the GI50 in the assay on MOLT-4 leukemia was 0.0561 µM.
For `CN(C)CC1CCCC/C1=N\OC(=O)c1ccccc1` (stereo unspecified), the TGI in the assay on HCC-2998 colon, with MOLT-4 leukemia, with RXF 393 renal, in the assay with SK-MEL-5 melanoma, with COLO 205 colon and in the assay with LOX IMVI melanoma was over 100 µM in each case.
Regarding `CCOC(=O)C1(C)C2=CC=C(O2)C(C)(C)C2=CC=C(O2)C(C)(C)C2=CC=C(O2)C(C)(C)C2=CC=C1O2`, the TGI with SNB-19 CNS, with HCC-2998 colon, in the assay with MOLT-4 leukemia, in the assay with RXF 393 renal, with COLO 205 colon and in the assay on LOX IMVI melanoma was over 100 µM in each case.
For `[pH]1p2[pH]p3p1p3[pH]2.c1cc[c]([Ge]([c]2ccccc2)[c]2ccccc2)cc1.c1cc[c]([Ge]([c]2ccccc2)[c]2ccccc2)cc1.c1cc[c]([Ge]([c]2ccccc2)[c]2ccccc2)cc1`, the GI50 is 14.1 µM with SNB-19 CNS; 17 µM in the assay with HCC-2998 colon; 16.3 µM in the assay with MOLT-4 leukemia; 64.9 µM with RXF 393 renal; 34.1 µM in the assay with SK-MEL-5 melanoma; 12.1 µM in the assay on COLO 205 colon. Further, the GI50 with LOX IMVI melanoma is 14.4 µM. In addition, the TGI was 27.2 µM with SNB-19 CNS; 31 µM with HCC-2998 colon; over 100 µM in the assay with MOLT-4 leukemia; over 100 µM with RXF 393 renal; 53.1 µM with SK-MEL-5 melanoma; 26.2 µM in the assay with COLO 205 colon. The molecule further came in with a TGI with LOX IMVI melanoma of 30.4 µM.

Values taken from PubChem BioAssay (NCI).
